Assay results reported in ChEMBL document CHEMBL1159209, “Antineoplastic agents, 294. Variations in the formation of pancratistatin and related isocarbostyrils in Hymenocallis littoralis” (J Nat Prod, 1995).
The source made the active and inactive calls. The rule behind the calls is not given here.

Tests used:
P388 = experiment: In vivo cytotoxicity against mouse P388 cells; assay type: functional, organism-based
M5076 = experiment: In vivo cytotoxicity against mouse M5076 cells; assay type: functional, organism-based

Question: Which results are given for `O=C1N[C@H]2[C@H](O)[C@H](O)[C@@H](O)[C@H](O)[C@@H]2c2cc3c(c(O)c21)OCO3`?
Answer: Activity (P388): Active; Activity (M5076): Active
